# Measured values taken from US20230365592A1 (Agios Pharmaceuticals, Inc., priority 2022, published 2023).
# Biological target: T1, human PAH with the R408W mutation (Homo sapiens, UniProt P00439, R408W)
# T1 construct: expressed in transfected cells
# T1 sequence (P00439 1-452 R408W): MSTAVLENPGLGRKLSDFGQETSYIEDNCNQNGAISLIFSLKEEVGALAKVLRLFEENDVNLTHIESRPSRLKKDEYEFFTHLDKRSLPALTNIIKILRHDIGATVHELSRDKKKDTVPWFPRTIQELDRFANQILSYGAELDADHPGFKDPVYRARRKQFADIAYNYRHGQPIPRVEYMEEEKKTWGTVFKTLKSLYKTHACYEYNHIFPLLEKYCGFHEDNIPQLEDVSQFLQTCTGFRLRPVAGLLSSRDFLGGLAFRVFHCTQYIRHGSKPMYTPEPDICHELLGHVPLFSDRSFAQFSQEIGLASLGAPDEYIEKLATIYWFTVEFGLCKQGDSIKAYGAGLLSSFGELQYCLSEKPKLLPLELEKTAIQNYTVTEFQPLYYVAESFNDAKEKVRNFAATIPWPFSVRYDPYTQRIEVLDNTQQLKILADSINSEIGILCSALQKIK
# Test: Cell Based Phenylalanine Flux Assay;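 note: after compound treatment, cells received sepiapterin plus isotope-labelled Phenylalanine for 4 hours, then labelled Tyrosine in the medium was quantified, 10-point 2-fold dilution series run in duplicate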
# Conditions: A375 cells expressing R408W PAH; 24 hrs with compound, then 20 µM sepiapterin and 800 µM 13C9,15N-Phenylalanine for 4 hours; 13C-Tyrosine by LC-MS; average where tested multiple times; read-out: AC50
row,Compound,AC50
1,Cc1nc(C(=O)N2CCc3[nH]cnc3C2c2cc3cccc(C(F)(F)F)n3n2)n(C)n1 (stereo not shown) [listing 1 of 2 here],> 5 µM
2,Cn1ccc(-c2nnc(C(=O)N3CCc4[nH]cnc4C3c3cc4cc(C(F)(F)F)ccn4n3)o2)n1 (stereo not shown) [listing 1 of 2 here],> 5 µM
3,Cc1c(C2c3nc[nH]c3CCN2C(=O)c2nnc(-c3cnn(C)c3C)o2)nn2ccccc12 (stereo not shown),1 to 5 µM
4,Cc1cccc2cc(C3c4nc[nH]c4CCN3C(=O)c3nnc(C4CC(F)(F)C4)o3)nn12 (stereo not shown) [listing 1 of 2 here],> 5 µM
5,Cn1ccc(-c2nnc(C(=O)N3CCc4[nH]cnc4C3c3cc4c(OC(F)F)cccn4n3)o2)n1 (stereo not shown) [listing 1 of 2 here],> 5 µM
6,COc1cccn2nc(C3c4nc[nH]c4CCN3C(=O)c3nnc(C)o3)cc12 (stereo not shown) [listing 1 of 2 here],> 5 µM
7,O=C(c1nnc(C2CC(F)(F)C2)o1)N1CCc2[nH]cnc2C1c1cc2cccc(Cl)n2n1 (stereo not shown) [listing 1 of 2 here],> 5 µM
8,O=C(c1nnc(-c2cnn(C(F)(F)F)c2)o1)N1CCc2[nH]cnc2C1c1cc2cccc(F)n2n1 (stereo not shown) [listing 1 of 2 here],> 5 µM
9,Cc1nnc(C(=O)N2CCc3[nH]cnc3C2c2cc3cccc(F)n3n2)o1 (stereo not shown) [listing 1 of 2 here],1 to 5 µM
10,O=C(c1nnc(-c2ncccn2)o1)N1CCc2[nH]cnc2C1c1cc2cccc(C(F)(F)F)n2n1 (stereo not shown) [listing 1 of 2 here],> 5 µM
11,Cc1c(C2c3nc[nH]c3CCN2C(=O)c2nnc(C3CC3)o2)nn2ccccc12 (stereo not shown) [listing 1 of 2 here],1 to 5 µM
12,Cc1cccc2cc(C3c4nc[nH]c4CCN3c3nnc(C4CC4)o3)nn12 (stereo not shown) [listing 1 of 2 here],> 5 µM
13,O=C(c1cnn2cc(N3CCOCC3)ccc12)N1CCc2[nH]cnc2C1c1cc2ccccn2n1 (stereo not shown) [listing 1 of 2 here],> 5 µM
14,O=C(c1cnco1)N1CCc2[nH]cnc2C1c1cc2cc(C(F)(F)F)ccn2n1 (stereo not shown) [listing 1 of 2 here],> 5 µM
15,O=C(c1cnco1)N1CCc2[nH]cnc2C1c1cc2cccc(C(F)(F)F)n2n1 (stereo not shown) [listing 1 of 2 here],> 5 µM
16,Cc1cccc2cc(C3c4nc[nH]c4CCN3C(=O)c3cnco3)nn12 (stereo not shown) [listing 1 of 2 here],1 to 5 µM
17,Cc1nc(C(C)O)oc1C(=O)N1CCc2[nH]cnc2C1c1cc2cccc(Cl)n2n1 (stereo not shown) [listing 1 of 2 here],> 5 µM
18,O=C(CCc1nccs1)N1CCc2[nH]cnc2C1c1cc2ccccn2n1 (stereo not shown),1 to 5 µM
19,Cn1nc(C(F)(F)F)nc1C(=O)N1CCc2[nH]cnc2C1c1cc2cccc(C(F)(F)F)n2n1 (stereo not shown),1 to 5 µM
20,CN1CCN(c2nnc(C(=O)N3CCc4[nH]cnc4C3c3cc4ccccn4n3)o2)CC1 (stereo not shown),> 5 µM
21,Cn1cc(-c2ccc3c(C(=O)N4CCc5[nH]cnc5C4c4cc5ccccn5n4)cnn3c2)cn1 (stereo not shown),1 to 5 µM
22,Cc1nc(C(=O)N2CCc3[nH]cnc3C2c2cc3cccc(C(F)(F)F)n3n2)n(C)n1 (stereo not shown) [listing 2 of 2 here],1 to 5 µM

row,Compound,AC50
1,Cn1ccc(-c2nnc(C(=O)N3CCc4[nH]cnc4C3c3cc4cc(C(F)(F)F)ccn4n3)o2)n1 (stereo not shown) [listing 2 of 2 here],1 to 5 µM
2,Cn1cc(-c2nnc(N3CCc4[nH]cnc4C3c3cc4ccccn4n3)o2)cn1 (stereo not shown),1 to 5 µM
3,Cc1c(C2c3nc[nH]c3CCN2C(=O)c2nnc(C(C)(C)F)o2)nn2ccccc12 (stereo not shown),1 to 5 µM
4,O=C(c1nnc(C2CC(F)(F)C2)o1)N1CCc2[nH]cnc2C1c1cc2cccc(C(F)F)n2n1 (stereo not shown),1 to 5 µM
5,O=C(c1nnc(C2CC(F)(F)C2)o1)N1CCc2[nH]cnc2C1c1cc2cccc(C(F)(F)F)n2n1 (stereo not shown),1 to 5 µM
6,Cc1cccc2cc(C3c4nc[nH]c4CCN3C(=O)c3nnc(C4CC(F)(F)C4)o3)nn12 (stereo not shown) [listing 2 of 2 here],1 to 5 µM
7,Cn1ccc(-c2nnc(C(=O)N3CCc4[nH]cnc4C3c3cc4c(OC(F)F)cccn4n3)o2)n1 (stereo not shown) [listing 2 of 2 here],1 to 5 µM
8,Cn1cnc(-c2nnc(C(=O)N3CCc4[nH]cnc4C3c3cc4c(C(F)F)cccn4n3)o2)c1 (stereo not shown),1 to 5 µM
9,CC(C)c1nnc(C(=O)N2CCc3[nH]cnc3C2c2cc3c(C(F)F)cccn3n2)o1 (stereo not shown),> 5 µM
10,Cn1cncc1-c1nnc(C(=O)N2CCc3[nH]cnc3C2c2cc3c(C(F)F)cccn3n2)o1 (stereo not shown),1 to 5 µM
11,Fc1cccn2nc(C3c4nc[nH]c4CCN3c3nc4ccccc4o3)cc12 (stereo not shown),1 to 5 µM
12,COc1cccn2nc(C3c4nc[nH]c4CCN3C(=O)c3nnc(C)o3)cc12 (stereo not shown) [listing 2 of 2 here],1 to 5 µM
13,Cn1cncc1-c1nnc(C(=O)N2CCc3[nH]cnc3C2c2cc3cccc(C(F)F)n3n2)o1 (stereo not shown),1 to 5 µM
14,O=C(c1nnc(C2CC(F)(F)C2)o1)N1CCc2[nH]cnc2C1c1cc2cccc(Cl)n2n1 (stereo not shown) [listing 2 of 2 here],1 to 5 µM
15,Clc1cccc2cc(C3c4nc[nH]c4CCN3c3nnc(C4CC4)o3)nn12 (stereo not shown),1 to 5 µM
16,O=C(c1nnc(-c2cnn(C(F)(F)F)c2)o1)N1CCc2[nH]cnc2C1c1cc2cccc(F)n2n1 (stereo not shown) [listing 2 of 2 here],1 to 5 µM
17,Cc1nnc(C(=O)N2CCc3[nH]cnc3C2c2cc3cccc(F)n3n2)o1 (stereo not shown) [listing 2 of 2 here],1 to 5 µM
18,Cc1nc(C(C)(C)O)oc1C(=O)N1CCc2[nH]cnc2C1c1cc2cccc(C(F)(F)F)n2n1 (stereo not shown),1 to 5 µM
19,Cc1nc(C(C)(C)O)oc1C(=O)N1CCc2[nH]cnc2C1c1cc2cccc(C)n2n1 (stereo not shown),1 to 5 µM
20,CC(C)(O)c1nnc(C(=O)N2CCc3[nH]cnc3C2c2cc3c(C(F)F)cccn3n2)o1 (stereo not shown),1 to 5 µM
21,FC(F)c1cccn2nc(C3c4[nH]cnc4CCN3c3nnc(-c4ccccn4)o3)cc12 (stereo not shown),1 to 5 µM
22,CC(C)(O)c1nnc(C(=O)N2CCc3[nH]cnc3C2c2cc3cc(C(F)(F)F)ccn3n2)o1 (stereo not shown),> 5 µM

row,Compound,AC50
1,Cc1ccc2cc(C3c4nc[nH]c4CCN3C(=O)c3nnc(C(C)(C)O)o3)nn2c1 (stereo not shown),1 to 5 µM
2,CC(C)(O)c1nnc(C(=O)N2CCc3[nH]cnc3C2c2cc3cccc(C(F)F)n3n2)o1 (stereo not shown),1 to 5 µM
3,CC(C)(O)c1ncc(C(=O)N2CCc3[nH]cnc3C2c2cc3cccc(C(F)(F)F)n3n2)o1 (stereo not shown),1 to 5 µM
4,O=C(c1nnc(-c2ncccn2)o1)N1CCc2[nH]cnc2C1c1cc2cccc(C(F)(F)F)n2n1 (stereo not shown) [listing 2 of 2 here],1 to 5 µM
5,Fc1cccc2cc(C3c4nc[nH]c4CCN3c3nnc(-c4ccccn4)o3)nn12 (stereo not shown),1 to 5 µM
6,O=C(c1nnc(-c2ncccn2)o1)N1CCc2[nH]cnc2C1c1cc2cccc(F)n2n1 (stereo not shown),1 to 5 µM
7,O=C(c1nnc(-c2ncccn2)o1)N1CCc2[nH]cnc2C1c1cc2ccccn2n1 (stereo not shown),1 to 5 µM
8,O=C(c1nnc(-c2ccccn2)o1)N1CCCc2[nH]cnc2C1c1cc2ccccn2n1 (stereo not shown),> 5 µM
9,CC(C)c1nnc(C(=O)N2CCc3[nH]cnc3C2c2cc3cccc(C(F)(F)F)n3n2)o1 (stereo not shown),1 to 5 µM
10,Cc1c(C2c3nc[nH]c3CCN2C(=O)c2nnc(C3CC3)o2)nn2ccccc12 (stereo not shown) [listing 2 of 2 here],1 to 5 µM
11,FC(F)c1cccc2cc(C3c4nc[nH]c4CCN3c3nnc(C4CC4)o3)nn12 (stereo not shown),1 to 5 µM
12,Fc1cccc2cc(C3c4nc[nH]c4CCN3c3nnc(C4CC4)o3)nn12 (stereo not shown),1 to 5 µM
13,Cc1cccc2cc(C3c4nc[nH]c4CCN3c3nnc(C4CC4)o3)nn12 (stereo not shown) [listing 2 of 2 here],1 to 5 µM
14,Cc1nnc(C(=O)N2CCc3[nH]cnc3C2c2cc3cc(C(F)(F)F)ccn3n2)o1 (stereo not shown),1 to 5 µM
15,Cc1ccc2cc(C3c4nc[nH]c4CCN3C(=O)c3nnc(C)o3)nn2c1 (stereo not shown),1 to 5 µM
16,Cc1nnc(N2CCc3[nH]cnc3C2c2cc3ccccn3n2)o1 (stereo not shown),1 to 5 µM
17,Cc1c(C2c3nc[nH]c3CCN2C(=O)c2nnc(C(C)(C)C)o2)nn2ccccc12 (stereo not shown),1 to 5 µM
18,CC(C)(C)c1nnc(C(=O)N2CCc3[nH]cnc3C2c2cc3cc(C(F)(F)F)ccn3n2)o1 (stereo not shown),1 to 5 µM
19,Cn1nc(C(F)F)nc1C(=O)N1CCc2[nH]cnc2C1c1cc2cccc(C(F)(F)F)n2n1 (stereo not shown),1 to 5 µM
20,O=C(c1cnn2cc(N3CCOCC3)ccc12)N1CCc2[nH]cnc2C1c1cc2ccccn2n1 (stereo not shown) [listing 2 of 2 here],1 to 5 µM
21,Cc1cccc2cc(C3c4nc[nH]c4CCN3C(=O)c3cnn4ccccc34)nn12 (stereo not shown),1 to 5 µM
22,O=C(c1nnc(N2CCC(F)CC2)o1)N1CCc2[nH]cnc2C1c1cc2ccccn2n1 (stereo not shown),1 to 5 µM

row,Compound,AC50
1,Cc1c(C2c3nc[nH]c3CCN2C(=O)c2cnco2)nn2ccccc12 (stereo not shown),1 to 5 µM
2,CN(C)C(=O)c1nnc(N2CCc3[nH]cnc3C2c2cc3c(F)cccn3n2)o1 (stereo not shown),1 to 5 µM
3,O=C(c1cnco1)N1CCc2[nH]cnc2C1c1cc2cc(C(F)(F)F)ccn2n1 (stereo not shown) [listing 2 of 2 here],1 to 5 µM
4,O=C(c1cnco1)N1CCc2[nH]cnc2C1c1cc2cc(F)ccn2n1 (stereo not shown),1 to 5 µM
5,O=C(c1cnco1)N1CCc2[nH]cnc2C1c1cc2ccc(C(F)(F)F)cn2n1 (stereo not shown),1 to 5 µM
6,O=C(c1cnco1)N1CCc2[nH]cnc2C1c1cc2cccc(C(F)(F)F)n2n1 (stereo not shown) [listing 2 of 2 here],1 to 5 µM
7,Cc1nc(C(=O)N2CCc3[nH]cnc3C2c2cc3cccc(Cl)n3n2)n(C)n1 (stereo not shown),> 5 µM
8,O=C(c1cnco1)N1CCc2[nH]cnc2C1c1cc2cccc(Cl)n2n1 (stereo not shown),1 to 5 µM
9,Cn1nc(C2CC2)nc1C(=O)N1CCc2[nH]cnc2C1c1cc2cccc(Cl)n2n1 (stereo not shown),1 to 5 µM
10,Cc1cccc2cc(C3c4nc[nH]c4CCN3C(=O)c3cnco3)nn12 (stereo not shown) [listing 2 of 2 here],1 to 5 µM
11,COCc1ccc2c(C(=O)N3CCc4[nH]cnc4C3c3cc4cccc(C(F)(F)F)n4n3)cnn2c1 (stereo not shown),1 to 5 µM
12,O=C(C1CC1(F)F)N1CCc2[nH]cnc2C1c1cc2ccccn2n1 (stereo not shown),1 to 5 µM
13,O=C(c1cnn2ccccc12)N1CCc2[nH]cnc2C1c1cc2cccc(C(F)(F)F)n2n1 (stereo not shown),1 to 5 µM
14,Cc1cccn2nc(C3c4nc[nH]c4CCN3c3nnc(C(=O)N(C)C)o3)cc12 (stereo not shown),1 to 5 µM
15,CN(C)C(=O)c1nnc(N2CCc3[nH]cnc3C2c2cc3ccccn3n2)o1 (stereo not shown),1 to 5 µM
16,Cc1nc(C(C)O)oc1C(=O)N1CCc2[nH]cnc2C1c1cc2cccc(C(F)(F)F)n2n1 (stereo not shown),1 to 5 µM
17,Cc1nc(C(C)O)oc1C(=O)N1CCc2[nH]cnc2C1c1cc2cccc(C)n2n1 (stereo not shown),1 to 5 µM
18,Cc1nc(C(C)O)oc1C(=O)N1CCc2[nH]cnc2C1c1cc2cccc(Cl)n2n1 (stereo not shown) [listing 2 of 2 here],1 to 5 µM
19,CC(O)c1nnc(C(=O)N2CCc3[nH]cnc3C2c2cc3ccccn3n2)o1 (stereo not shown),1 to 5 µM
20,CN(C)Cc1ccc2c(C(=O)N3CCc4[nH]cnc4C3c3cc4c(C(F)F)cccn4n3)cnn2c1 (stereo not shown),1 to 5 µM
21,CN(C)Cc1ccc2c(C(=O)N3CCc4[nH]cnc4C3c3cc4c(F)cccn4n3)cnn2c1 (stereo not shown),1 to 5 µM
22,CN(C)Cc1ccc2c(C(=O)N3CCc4[nH]cnc4C3c3cc4cccc(C(F)(F)F)n4n3)cnn2c1 (stereo not shown),1 to 5 µM
